In US6716428B1, “Antigenic modification of polypeptides” (The Ohio State University Research Foundation, priority 1999, dated 2004):
Read-outs that look alike come from different tables or passages of the source. Ends that are not written are not given here.

Tests used:
female baboons = assay: Fertility rates (matings and pregnancies) of immunized female baboons; type: in vivo, baboon; conditions: for Fertility Rate (%) / No. Pregnant: female baboons
baboons = assay: Breeding of immunized baboons (pre-mate titer, ovulation, pregnancy), Diazo-β-HCG presensitized, Diazo-β-HCG-(111-145) booster; type: in vivo, baboon; conditions: for Pre-Mate Titer: baboon 2, matings No. 1-10 over approximately one year
Description: Baboons were immunized initially with a beta subunit of HCG modified by diazotization in a manner similar to that described in conjunction with Example II. Following this initial administration, the baboons were injected 21 and 42 days later with the peptide of Structure (II) above which had been modified by the same diazotization process. The levels were maintained for a period of over one year.
The Table presents the results of mating these animals ten times over a period of approximately one year. […] Such cross reactivity may be avoided by the utilization of the fragment conjugation procedures set forth in detail hereinabove.

HCG [1] = type: in vivo, rabbit
HCG [2] = assay: Antibody level to HCG in immunized mice (^125I antigen, double antibody technique); type: in vivo; conditions: mice, carrier series
[3] = system: peptide used in the conjugate (Structure (II), (XII), (XIV), (X)); assay: Antibody level to the peptide of the conjugate in immunized mice (^125I antigen, double antibody technique); type: in vivo; conditions: mice, carrier series
[4] = system: Ridgeway Osteogenic Sarcoma; assay: Growth of Ridgeway Osteogenic Sarcoma in immunized AKR mice; type: in vivo
Text: Sixty mice of the AKR strain were divided at random into a test group and a control group each comprising 30 mice. The test group were then immunized in the same manner as in Examples XXXVI and XXXVII with a vaccine comprising the same conjugate as in those Examples dissolved in Freund's Complete Adjuvant, while the control group simply received the Freund's Adjuvant. Booster Immunizations were given to each group three and seven weeks after the first immunization. […] In the mice in which the tumor survived, tumor volume measurements were made 22, 26, 29, 31, 33, 38, 40 and 43 days after innoculation with the Sarcoma. […] Nevertheless, the results in Table 27 do show a significant reduction in the rate of tumor growth in the conjugate-immunized mice.

Friends' Leukemia Virus = assay: Survival of immunized SJL/J mice inoculated with Friends' Leukemia Virus; type: in vivo; design: concentration or dose not given beside the values
Text: The mice used in this experiment were six-week old female mice of SJL/J strain. A test group and a control group, each containing approximately 20 mice were selected at random and were immunized in the same manner as in Example XXXVI above, the test animals receiving the vaccine containing the peptide/diphtheria toxoid conjugate and the control group receiving the vaccine containing only the vehicle. However, in this experiment a different immunization schedule was followed: the original immunization was followed by booster immunizations 4, 9, 20 and 29 weeks later. Six weeks after the first immunization (i.e. two weeks after the second immunization) each mouse was injected with approximately 1 million Friends' Leukemia Virus and the mice were observed daily for deaths.

Tetanus Toxoid: carrier protein given alone to the control group
Fertility Rate (female baboons; Mating Cycle 1, CFA): 66.7% | Number Pregnant (female baboons; Mating Cycle 1, CFA): 10 | Fertility Rate (female baboons; Mating Cycle 2, CFA): 80.0% | Number Pregnant (female baboons; Mating Cycle 2, CFA): 4 | Fertility Rate (female baboons; Mating Cycle 3, CFA): 100.0% | Number Pregnant (female baboons; Mating Cycle 3, CFA): 1 | Overall Fertility Rate (female baboons; all matings of three mating cycles, CFA): 71.4% | Total Number Pregnant (female baboons; three mating cycles, CFA): 15

Diazo-β-HCG-(111-145): peptide of Structure (II) modified by diazotization, booster after presensitization with diazotized beta subunit of HCG (DDPRFQDSSSSKAPPPSLPSPSRLPGPSDTPILPQ; diazo conjugate; UniProt P0DN86 131-165, looked up, fragment)
Pre-Mate Titer (baboons; before Mating No. 2): 4.10 | Pre-Mate Titer (baboons; before Mating No. 3): 4.00 | Pre-Mate Titer (baboons; before Mating No. 4): 3.89 | Pre-Mate Titer (baboons; before Mating No. 5): 3.76 | Pre-Mate Titer (baboons; before Mating No. 6): 5.00 | Pre-Mate Titer (baboons; before Mating No. 7): 4.75 | Pre-Mate Titer (baboons; before Mating No. 8): 4.20 | Pre-Mate Titer (baboons; before Mating No. 9): 4.25 | antibody cross reactivity with LH (baboons; in vivo): antibody cross reactivity with LH was observed

CCCCCCCCCCCCCCCCCC(=O)OCC1OC(O)C(NC(C)=O)C(OCC(=O)NC(C)C(=O)NC(CCC(=O)O)C(N)=O)C1O (stereo not shown) [CGP 18741, NAc-ner-Mur (6-0-stearoyl)-L.Ala-D.isoGln]
Mean Antibody Level-^125I-HCG (HCG [1]; as E193, 4 weeks): 9.8 M/L × 10^10 | Mean Antibody Level-^125I-HCG (HCG [1]; as E193, 5 weeks): 6.2 M/L × 10^10 | Mean Antibody Level-^125I-HCG (HCG [1]; as E193, 6 weeks): 8.9 M/L × 10^10 | Mean Antibody Level-^125I-HCG (HCG [1]; as E193, 7 weeks): 81.1 M/L × 10^10 | Mean Antibody Level-^125I-HCG (HCG [1]; as E193, 8 weeks): 75.4 M/L × 10^10 | Mean Antibody Level-^125I-HCG (HCG [1]; as E193, 9 weeks): 74.9 M/L × 10^10 | Mean Antibody Level-^125I-HCG (HCG [1]; as E193, 10 weeks): 121.8 M/L × 10^10 | Mean Antibody Level-^125I-HCG (HCG [1]; as E193, 11 weeks): 156.8 M/L × 10^10 | Mean Antibody Level-^125I-HCG (HCG [1]; as E193, 12 weeks): 97.6 M/L × 10^10 | Mean Antibody Level-^125I-HCG (HCG [1]; in vivo): 5.9 M/L × 10^10

Structure (XII): residues 109-145 of beta-HCG, SEQ ID NO: 13; unconjugated in Table 11 (carrier None) (TCDDPRFQDSSSSKAPPPSLPSPSRLPGPSDTPILPQ; listed as Homo sapiens)
Antibody Level to HCG (HCG [2]; 21 days): 0.1 ng/mL | Antibody Level to HCG (HCG [2]; 35 days): 0.1 ng/mL | Antibody Level to Peptide ([3]; peptide of Structure (XII), 21 days after primary immunization): 1.3 ng/mL | Antibody Level to Peptide ([3]; 35 days): 0.8 ng/mL

Conjugate (TCDDPRFQDSSSSKAPPPSLPSPSRLPGPSDTPILPQ; also: conjugated to foreign carrier; listed as Homo sapiens)
Fertility Rate (%) (female baboons; mating cycle 1): 0% | No. Pregnant (female baboons; mating cycle 1): 0 | Fertility Rate (%) (female baboons; mating cycle 2): 6.7% | No. Pregnant (female baboons; mating cycle 2): 1 | Fertility Rate (%) (female baboons; mating cycle 3): 7.1% | No. Pregnant (female baboons; mating cycle 3): 1 | Fertility Rate (%) (female baboons; totals of mating cycles 1-3): 4.6% | No. Pregnant (female baboons; totals of mating cycles 1-3): 2 | Mean Tumor Volume - cm^3 ([4]; day 22 of tumor growth): 0.65 cm^3 | Mean Tumor Volume - cm^3 ([4]; day 26 of tumor growth): 0.68 cm^3 | Mean Tumor Volume - cm^3 ([4]; day 29 of tumor growth): 1.20 cm^3 | Mean Tumor Volume - cm^3 ([4]; day 31 of tumor growth): 2.24 cm^3 | Mean Tumor Volume - cm^3 ([4]; day 33 of tumor growth): 3.04 cm^3 | Mean Tumor Volume - cm^3 ([4]; day 36 of tumor growth): 3.14 cm^3 | Mean Tumor Volume - cm^3 ([4]; day 38 of tumor growth): 4.40 cm^3 | Mean Tumor Volume - cm^3 ([4]; day 40 of tumor growth): 5.54 cm^3 | Mean Tumor Volume - cm^3 ([4]; day 43 of tumor growth): 5.00 cm^3 | Survival Rate - % (Friends' Leukemia Virus; 0 days after inoculation with Friends' Leukemia Virus): 100.0% | Survival Rate - % (Friends' Leukemia Virus; 22 days after inoculation): 100.0% | Survival Rate - % (Friends' Leukemia Virus; 29 days after inoculation): 100.0% | Survival Rate - % (Friends' Leukemia Virus; 98 days after inoculation (day of booster immunization)): 100.0% | Survival Rate - % (Friends' Leukemia Virus; 160 days after inoculation): 100.0% | Survival Rate - % (Friends' Leukemia Virus; 163 days after inoculation (day of booster immunization)): 100.0% | Survival Rate - % (Friends' Leukemia Virus; 166 days after inoculation): 100.0% | Survival Rate - % (Friends' Leukemia Virus; 175 days after inoculation): 100.0% | Survival Rate - % (Friends' Leukemia Virus; 180 days after inoculation): 100.0%

CCCCCCCCCCCCCCCCCC(=O)OCC1OC(O)C(NC(C)=O)C(OC(C)C(=O)NC(C)C(=O)NC(CCC(=O)O)C(N)=O)C1O (stereo not shown) [CGP 18177, NAc-Mur (6-0-stearoyl)-LAla-D.isoGln]
Mean Antibody Level-^125I-HCG (HCG [1]; as E193, 4 weeks): 215.1 M/L × 10^10 | Mean Antibody Level-^125I-HCG (HCG [1]; as E193, 5 weeks): 204.6 M/L × 10^10 | Mean Antibody Level-^125I-HCG (HCG [1]; as E193, 6 weeks): 218.2 M/L × 10^10 | Mean Antibody Level-^125I-HCG (HCG [1]; as E193, 7 weeks): 441.9 M/L × 10^10 | Mean Antibody Level-^125I-HCG (HCG [1]; as E193, 8 weeks): 544.9 M/L × 10^10 | Mean Antibody Level-^125I-HCG (HCG [1]; as E193, 9 weeks): 456.2 M/L × 10^10 | Mean Antibody Level-^125I-HCG (HCG [1]; as E193, 10 weeks): 631.0 M/L × 10^10 | Mean Antibody Level-^125I-HCG (HCG [1]; as E193, 11 weeks): 584.0 M/L × 10^10 | Mean Antibody Level-^125I-HCG (HCG [1]; as E193, 12 weeks): 270.0 M/L × 10^10 | Mean Antibody Level-^125I-HCG (HCG [1]; in vivo): 19.9 M/L × 10^10
